Experimental data: patent US8252832B2, “Kinesin inhibitors as cancer therapeutics” (Novartis AG, priority 2007, dated 2012)
Several values for one entry are separate records, joined by “and”; a condition that tells them apart may be missing. Equal entries are not always repeated. Where two headings read alike, the source gives them in different places.

Key:
[1] = HCT15 tumor xenograft model, host response; type: in vivo, mouse
Procedure: (§1) Routine animal care and assurance of welfare were as described above.
(§2) Treatments for the efficacy studies were initiated 10 days following tumor cell implantation when tumors were approximately 300 mm^3. Compound IIa and SB-715992 were administered intravenously (i.v.) via the tail vein in a volume of 8 mL/kg at the doses indicated. Paclitaxel was administered intraperitoneally (i.p.) in a volume of 16 mL/kg at 30 mg/kg.
(§3) Tumor volume was calculated as (L×W2)/2. […] Data was analyzed as described above.

[2] = q4d × 3
Procedure: Experiments were performed using outbred athymic nu/nu mice (Charles River Laboratories) approximately 6-8 weeks old. Upon arrival, animals received a subcutaneous microchip implant (AVID, Folsom, La.) in the subscapular region for identification of individuals. Animals were allowed to acclimatize for 1 week before any experimental procedures began.
Compound IIa, compound IIc, compound IIa (shown below), and SB-715992 were formulated in a Captisol®-based formulation. Doses were administered intravenously (i.v.) and adjusted to each animal's body weight. Formulations were made once at the beginning of study and stored at room temperature. Clinical grade paclitaxel was purchased pre-mixed in a cremophor-based vehicle (Mayne Pharma, now Hospira, Lake Forest, Ill., catalog #NDC-6170334209) and diluted in sterile saline to provide a dose volume of 16 mL/kg for a 30 mg/kg dose administered intraperitoneally (i.p.)
For the efficacy studies, mice were enrolled with a mean tumor volume of approximately 300 mm^3. Tumor xenografts were measured in two dimensions (L and W) with digital calipers twice weekly from the start of dosing on Day 0. Tumor volume was calculated as (L×W^2)/2. Body weights were measured twice weekly and clinical observations were recorded daily. Tumor volume and body weights were captured and stored by StudyDirector software (StudyLog, South San Francisco, Calif.).

[3] = system: HCT15 tumor xenograft; test: HCT15 tumor xenograft model, tumor response; type: in vivo, mouse
Procedure: as §1
Human HCT15 colon carcinoma cells were obtained from the National Cancer Institute's DCTD Tumor Repository (catalog #NCI-502711, Rockville, Md.). HCT15 cells were grown in RPMI 1640 with 2 mM L-glutamine (Mediatech Inc., catalog #15-040-CV) supplemented with 10% fetal bovine serum (JRH Biosciences, catalog #12003-1000M). The cells were tested to be free of Mycoplasma sp. and murine viruses in the IMPACT1 PCR assay panel (RADIL, University of Missouri, Columbia, Mo.)
These cells were grown as adherent cultures, maintained at 37° C. in a humidified atmosphere containing 5% carbon dioxide. Cells were cultured for fewer than 10 passages prior to use. Cells were harvested at 95% confluency, and centrifuged at ˜800×g for 5 minutes at 4° C. and then resuspended in a 1:1 ratio of HBSS (Mediatech Inc., catalog #21-021-CV) plus Matrigel™ at a concentration of 50 million cells/mL for implantation subcutaneously (injection volume of 0.2 mL).
as §2, §3

[4] = system: KB8.5 tumor xenograft; test: KB8.5 tumor xenograft model (P-gp expressing), tumor response; type: in vivo, mouse; conditions: q4d × 3
Procedure: Cells were cultured for fewer than 10 passages prior to use. […] All data were expressed as mean and SEM. Between-groups comparisons for final tumor measurements were performed using the one-way ANOVA pair-wise analysis. Significance was determined using Kruskal-Wallis one-way ANOVA on Ranks, followed by appropriate post-hoc test (Dunn's Method or Tukey Test) for multiple pair-wise comparisons. Statistical analysis was carried out using SigmaStat (Systat Software Inc., San Jose, Calif.).

[5] = system: MV4; 11 human AML subcutaneous xenograft tumors; test: Subcutaneous MV4; 11 tumor xenograft model, tumor response; type: in vivo, mouse
Procedure: Subcutaneous tumor efficacy studies were performed using outbred athymic nu/nu mice approximately 6-8 weeks old (Charles River Laboratories, Hollister, Calif.). The efficacy study in the disseminated disease model was performed using immunodeficient NOD-SCID female mice approximately 7-8 weeks old (Jackson Laboratories, Bar Harbor, Me.). […] Routine animal care and assurance of welfare were as described above.
Human MV4; 11 acute myelogenous leukemia cells were obtained from American Tissue Culture Collection (catalog #CRL-9591, Rockville, Md.) and tested to be free of Mycoplasma sp. and murine viruses in the IMPACT1 PCR assay panel (RADIL, University of Missouri, Columbia, Mo.). For the disseminated disease model, a stable pool of MV4; 11 cells expressing the luciferase gene was received from Fangxian Sun at the Genomics Institute of the Novartis Research Foundation in San Diego, Calif. (MV4; 11-luc). The MV4; 11 cells were grown in Iscove's modified Dulbecco's medium (Mediatech Inc., catalog #15-016-CV) supplemented with 10% fetal bovine serum (JRH Biosciences, catalog #12003-1000M), 4 mM L-glutamine and 5 ng/mL recombinant human […] (GM-CSF) (R&D Systems, catalog #215-GM). MV4; 11-luc were grown in the same media, but with the addition of 2 micrograms/mL of puromycin for selection of luciferase expression. These cells were grown as suspension cultures, maintained at 37° C. in a humidified atmosphere containing 5% carbon dioxide. Cells were cultured for fewer than 10 passages prior to use. Cells were harvested at approximately 2 million cells/mL, and centrifuged at ˜800×g for 5 minutes at 4° C. and then resuspended in a cold HBSS (Mediatech Inc., catalog #21-021-CV) at a concentration of 25 million cells/mL (containing 50% Matrigel™, BD Biosciences, catalog #354234) for implantation subcutaneously (injection volume of 0.2 mL) or at a concentration of 100 million cells/mL for implantation intravenously (i.v.) via the tail vein (injection volume of 0.1 mL). Mice were irradiated with 3 gray for 3 minutes one day prior to the i.v. cell implant.
The compound IIa (free base) and SB-715992 (free base) were formulated in 20% Captisol for a dose volume of 8 mL/kg. Doses were adjusted to each animal's body weight.
For the two efficacy evaluations in the subcutaneous tumor model, 10 million cells combined in a 1:1 mixture of HBSS and Matrigel™ were injected subcutaneously in the right flank in a total volume of 0.2 mL/mouse. […] Tumor volume was calculated as (L×W2)/2.

[6] = Study 2, 1.8 mg/kg, Q4d × 3, i.v
[7] = Study 2, 3.5 mg/kg, Q4d × 3, i.v
[8] = Study 2, 7.5 mg/kg, Q4d × 3, i.v

CC(=O)O[C@H]1C(=O)[C@@]2(C)[C@H]([C@H](OC(=O)c3ccccc3)[C@]3(O)C[C@H](OC(=O)[C@H](O)[C@@H](NC(=O)c4ccccc4)c4ccccc4)C(C)=C1C3(C)C)[C@]1(OC(C)=O)CO[C@@H]1C[C@@H]2O [Paclitaxel, reference compound]
Survival (alive/total) ([1]; 30 mg/kg, Q4d × 3, i.p.): 9/9 | Survival (alive/total) ([2]; 30 mg/kg, i.p.): 9/9 | Survival (alive/total) ([2]; Table 14 study, 30 mg/kg, i.p.): 9/9 | Survival (alive/total) ([2]; Table 15 study, 30 mg/kg, i.p.): 10/10 | Δ Tumor volume, Day 15 ([3]; 30 mg/kg, Q4d × 3, i.p.): 703 ± 198 mm^3 | ΔT/ΔC, Day 15 (%) ([3]; 30 mg/kg, Q4d × 3, i.p.): 104% | ΔT/ΔC, Day 11 (%) ([4]; 30 mg/kg, i.p.): 78% | ΔT/ΔC, Day 11 (%) ([4]; Table 14 study, 30 mg/kg, i.p.): 87% | ΔT/ΔC, Day 11 (%) ([4]; Table 15 study, 30 mg/kg, i.p., not statistically different from vehicle): 60% | CR (complete tumor regressions) ([5]; 1 mg/kg, q4d × 3, i.p.): 7 | Δ Tumor volume, Day 24 ([5]; 1 mg/kg, q4d × 3, i.p.): −151 ± 63 mm^3 | % Max Regression (Day) ([5]; 1 mg/kg, q4d × 3, i.p., D46): 75% | CR (complete tumor regressions) ([5]; 1 mg/kg, q4d × 3, i.p., listed as paclitaxel): 7/9

Cc1ccc(C(=O)N(CCCN)[C@@H](c2nc3cc(Cl)ccc3c(=O)n2Cc2ccccc2)C(C)C)cc1 [SB-715992, Ispinesib, reference compound]
Survival (alive/total) ([1]; 7.5 mg/kg, q4d × 3, i.v): 9/9 | Max. Δ body weight (Day) ([1]; 7.5 mg/kg, q4d × 3, i.v, D8): 0.6 ± 0.2 g | Max. Δ body weight (Day) (%) ([1]; 7.5 mg/kg, q4d × 3, i.v, D8): 2.6 ± 1.0% | Survival (alive/total) ([1]; 15 mg/kg, q4d × 3, i.v.): 9/9 | Max. Δ body weight (Day) ([1]; 15 mg/kg, q4d × 3, i.v, D10): -1.2 ± 0.4 g | Survival (alive/total) ([2]; 15 mg/kg, i.v.): 9/9 | % Max. Δ body weight, (Day) ([2]; 15 mg/kg, i.v., D7): 4 (D7) % | Survival (alive/total) ([2]; Table 14 study, 15 mg/kg, i.v.): 9/9 | % Max. Δ body weight, (Day) ([2]; Table 14 study, 15 mg/kg, i.v., D4): −1 (D4) % | Survival (alive/total) ([2]; Table 15 study, 15 mg/kg, i.v.): 10/10 | % Max. Δ body weight, (Day) ([2]; Table 15 study, 15 mg/kg, i.v., D11): −3 (D11) % | Δ Tumor volume, Day 15 ([3]; 7.5 mg/kg, q4d × 3, i.v): 647 ± 164 mm^3 | ΔT/ΔC, Day 15 (%) ([3]; 7.5 mg/kg, q4d × 3, i.v): 87% | Δ Tumor volume, Day 15 ([3]; 15 mg/kg, q4d × 3, i.v.): 491 ± 109 mm^3 | ΔT/ΔC, Day 15 (%) ([3]; 15 mg/kg, q4d × 3, i.v.): 67% | ΔT/ΔC, Day 11 (%) ([4]; 15 mg/kg, i.v.): 56% | ΔT/ΔC, Day 11 (%) ([4]; Table 14 study, 15 mg/kg, i.v.): 77% | ΔT/ΔC, Day 11 (%) ([4]; Table 15 study, 15 mg/kg, i.v., not statistically different from vehicle): 60% | CR (complete tumor regressions) ([5]; 15 mg/kg, q4d × 3, i.v.): 6/9 and 6 | Δ Tumor volume, Day 24 ([5]; 15 mg/kg, q4d × 3, i.v.): −211 ± 28 mm^3 | % Max Regression (Day) ([5]; 15 mg/kg, q4d × 3, i.v., D60): 98% | CR (complete tumor regressions) [5, 6]: 0 | Δ Tumor volume, Day 21 [5, 6]: 339 ± 218 mm^3 | ΔT/ΔC, Day 21 (%) [5, 6]: 59% | CR (complete tumor regressions) [5, 7]: 0 | Δ Tumor volume, Day 21 [5, 7]: 251 ± 132 mm^3 | ΔT/ΔC, Day 21 (%) [5, 7]: 44% | % Max. Regression (Day) ([5]; Study 2, 3.5 mg/kg, Q4d × 3, i.v, D10): 41 (D10) % | CR (complete tumor regressions) [5, 8]: 3 | Δ Tumor volume, Day 21 [5, 8]: −204 ± 20 mm^3 | % Max. Regression (Day) ([5]; Study 2, 7.5 mg/kg, Q4d × 3, i.v, D31): 75 (D31) %
